Source: article PMC9927415, “Tyrosine Kinase Inhibitors Display Potent Activity against Cryptosporidium parvum” (Microbiology Spectrum, 2022)
Where two headings read alike, the source gives them in different places.

Experiments:
[1] = Host cell cytotoxicity assay (CellTiter-Glo); details: human
Procedure: HepG2 cells were grown in Eagle’s Minimum Essential Medium (MEM) containing 10% FBS, 1% nonessential amino acids (NEAA) and 1% penicillin/streptomycin to >50% confluence prior to harvesting. Cells were suspended in media and 3000 cells per well were added onto 384-well clear bottom plates. Prior to addition of the cell suspension, the screening compounds (250 nl) were predispensed into plates using a liquid handler. Plates were incubated for 48 h at 37°C, 5% CO2. After 48 h of incubation, plates were equilibrated at room temperature for 30 min before luminescence signal was measured using CellTiter-Glo Reagent. Plates were kept at room temperature for 10 min to stabilize the signal and then read using a ViewLux luminescence reader. The HepG2 CC50 (from the host cell cytotoxicity assays) and C. parvum mean EC50 (from parasite growth inhibition assays) values were used to calculate selectivity index.

Cryptosporidium parvum = test: In vitro C. parvum growth inhibition assay (Nluc reporter strain in HCT-8 cells); type: cell-based; details: 48 h
Procedure: Host intestinal epithelial adenocarcinoma (HCT-8) cells were seeded into 96-well plates and grown to 70% confluence in RPMI medium supplemented with L-glutamine, 10% fetal bovine serum (FBS), 0.1 U/mL penicillin, 0.1 μg/mL streptomycin, 0.25 μg/mL amphotericin B and 1 mM sodium pyruvate. The host cell medium was aspirated and replaced with Cryptosporidium infection media (RPMI containing 2% FBS, 0.1 U/mL penicillin, 0.1 μg/mL streptomycin and 0.25 μg/mL amphotericin B) media prior to infection. The HCT-8 cells were infected with bleached and washed Nluc expressing C. parvum oocysts (2,000 oocysts per well) to which 10 μM compounds were added and plates were incubated for 48 h at 37°C, 5% CO2 and luminescence was measured using the protocol described previously ([14], [58]). […] Negative (no drug) and positive control (10 μM nitazoxanide) wells (three replicates each) were also set-up in the same plate. After the incubation, medium was removed and 100 μL of NanoGlo lysis buffer (Promega) was added to the wells followed by incubation for 15 min at 37°C, 5% CO2. The lysate was suspended by pipetting and 100 μL of NanoGlo lysis buffer containing 1:50 of NanoGlo substrate (Promega) was added to each well. […] For the dose response assay, compounds were tested in triplicate wells in two independent experiments and percent luminescence of no drug was calculated.
EC50 values were calculated using a nonlinear regression (curve fit of log-dose versus response) in GraphPad Prism version 8.

SMILES	CC50 at 48 h [1]	inhibition at 10 µM (Cryptosporidium parvum; 10 μM, read-out: inhibition of C. parvum growth)	inhibition at 10 µM (Cryptosporidium parvum; primary screen, 10 μM compound, three technical replicates, read-out: Mean percent inhibition of C. parvum growth)
Cc1ccc(O)cc1Nc1ccnc2ccc(S(C)(=O)=O)cc12 [Compound 5]	15.8 µM	–	–
CC(=O)Oc1ccccc1C(=O)Nc1ncc([N+](=O)[O-])s1 [Nitazoxanide, nitazoxanide, reference compound]	–	> 90%	94.5%
